From patent publication US20230348473A1, “SUBSTITUTED PYRIDINES AS PARP1 INHIBITORS” (Xinthera, Inc., priority 2022, published 2023)

How the values were obtained:
[1] = hHEP metabolic stability, predicted human hepatic clearance; format: in vitro ADME; details: well-stirred model, 1 μM
Description: Working stocks of individual test articles were prepared at concentrations of 100 μM by diluting 10 mM stocks prepared in DMSO 100-fold (v:v) into ACN/H2O (50/50, v:v). Human cryopreserved hepatocytes were thawed in a 37° C. water bath in <2 min., suspended in thawing media, and then centrifuged at 100×g for 10 min. Thawing media was aspirated, and pelleted hepatocytes were resuspended into incubation media at 1.5×10^6 cells/mL. Cell viability was determined using an Acridine Orange/Propidium Iodine stain, and hepatocytes were further diluted with incubation media to 0.5×10^6 viable cells/mL. Hepatocyte aliquots of 198 μL were added to wells of a 96-well plate, and test article incubations were initiated by the addition of 2 μL of 100 μM working stocks. Plates were incubated at 37° C. in a 5% CO2 atmosphere at 95% relative humidity on an orbital shaker at 300 rpm. Incubations were performed in duplicate. Following incubation, aliquots of individual reactions were terminated by addition of ACN containing internal standards at 0, 30-, 60-, 90-, 120-, and 240-min. Precipitated protein was pelleted via refrigerated centrifugation. Supernatants were diluted into an equal volume of pure water and mixed well prior to analysis via LC-MS/MS. In vitro intrinsic clearances (CLint) in μL/min/10^6 cells were determined for each incubation from calculated in vitro half-lives determined using a standard log-linear regression approach. In vitro CLint values were scaled up using the following physiological scaling factors: 99×10^6 cells/g human liver and 25.7 g human liver/kg body weight.

[2] = HLM metabolic stability, predicted human hepatic clearance; format: in vitro ADME; details: well-stirred model, 1 μM
Description: Working stocks of individual test articles were prepared at a concentration of 100 μM by diluting 10 mM stocks prepared in DMSO 100-fold (v:v) into ACN. Thawed hepatic microsomes were suspended in 100 mM potassium phosphate buffer, pH 7.4 to a microsomal protein concentration of 0.562 mg/mL. Diluted microsomes were combined with a solution of 10 mM NADPH, and the mixture was pre-warmed to 37° C. for 8 min. Reactions were initiated by addition of the test article working stocks to achieve a final test article concentration of 1 μM. Final microsomal protein and NADPH concentrations were 0.5 mg/mL and 1 mM, respectively. Incubations containing NADPH were run in duplicate. Test article losses mediated by non-CYP mechanisms were evaluated in a parallel set of incubations run in the absence of NADPH. Incubations lacking NADPH consisted of 1 replicate per test article. Following incubation in a 37° C. water bath, aliquots of individual reactions were quenched with cold ACN containing internal standards at […], 15-, 30-, 60-, 90-, and 120-min. Precipitated protein was pelleted via refrigerated centrifugation. Supernatants were diluted into an equal volume of pure water and mixed well prior to analysis via LC-MS/MS. In vitro intrinsic clearances (CLint) in μL/min/mg were determined for each incubation from calculated in vitro half-lives determined using a standard log-linear regression approach. In vitro CLint values were scaled up using the following physiological scaling factors: 40 mg microsomal protein/g human liver and 25.7 g human liver/kg body weight.

[3] = Caco-2 bidirectional permeability; format: in vitro ADME; details: human; for Papp A→B at 2 h, 5 μM: apical-to-basolateral, read-out: Caco-2 AB; for Papp B→A at 2 h, 5 μM: basolateral-to-apical, read-out: Caco-2 BA; for efflux ratio at 2 h, 5 μM: efflux ratio Papp (B-to-A)/Papp (A-to-B)
Description: Following a 1-hr. equilibration period in cell culture medium maintained at 37° C. in an incubator containing a 5% CO2 atmosphere at 95% relative humidity, Corning 96-well HTS Transwell® permeable support plates were seeded with 34,300 Caco-2 cells (ATCC) per well. Following seeding, plates were cultured for 14-18 days with cell culture medium replacement every other day beginning no later than 24 hr. after plating. Monolayer barrier integrity was monitored during the culture period using transepithelial electrical resistance (TEER) measurements taken with a Millicell Epithelial Volt-Ohm system. Caco-2 monolayers were considered ready for use when the TEER value >230 ohm·cm^2. Working stocks of individual test articles were prepared at a concentration of 5 μM by diluting 1 mM stocks prepared in DMSO into 10 mM HEPES. Prior to conducting the assay, Caco-2 plates were washed twice with prewarmed 10 mM HEPES and then equilibrated in 10 mM HEPES for 30 min. at 37° C. Following equilibration, test article flux was tested bidirectionally (in both the apical-to-basolateral and basolateral-to-apical directions) by adding test article working stocks to either the apical or basolateral chambers. Blank 10 mM HEPES was added to the opposite sides. Plates were then incubated at 37° C. for 2 hours. At the end of the incubation, aliquots from both sides of each monolayer were quenched with 4 volumes of ACN containing internal standards. Following a centrifugation step, supernatants were diluted with pure water prior to analysis via LC-MS/MS.
Apparent permeability (Papp, ×10^−6 cm/s) was calculated for all transport assays using the following equation: […]
Where: Papp is apparent permeability (×10^−6 cm/s). • dQ/dt is the rate of drug transport (pmol/s). • A is the surface area of the membrane (cm^2). • D0 is the initial donor concentration (nM; pmol/cm^3).
Efflux ratio was determined by calculating the ratio of the Papp in the basolateral-to-apical direction to the Papp in the apical-to-basolateral direction using the following equation: […]
Where: Papp (B-to-A) is the apparent permeability in the basolateral-to-apical direction. • Papp (A-to-B) is the apparent permeability in the apical-to-basolateral direction.

PARP1 = PARP1 (Homo sapiens (Human), UniProt P09874); assay: Biochemical fluorescence polarization (FP) assay, PARPi-FL displacement, PARP1; format: binding; details: 20 nM protein, 3 nM PARPi-FL, 4 h
Sequence of PARP1 (P09874 whole entry): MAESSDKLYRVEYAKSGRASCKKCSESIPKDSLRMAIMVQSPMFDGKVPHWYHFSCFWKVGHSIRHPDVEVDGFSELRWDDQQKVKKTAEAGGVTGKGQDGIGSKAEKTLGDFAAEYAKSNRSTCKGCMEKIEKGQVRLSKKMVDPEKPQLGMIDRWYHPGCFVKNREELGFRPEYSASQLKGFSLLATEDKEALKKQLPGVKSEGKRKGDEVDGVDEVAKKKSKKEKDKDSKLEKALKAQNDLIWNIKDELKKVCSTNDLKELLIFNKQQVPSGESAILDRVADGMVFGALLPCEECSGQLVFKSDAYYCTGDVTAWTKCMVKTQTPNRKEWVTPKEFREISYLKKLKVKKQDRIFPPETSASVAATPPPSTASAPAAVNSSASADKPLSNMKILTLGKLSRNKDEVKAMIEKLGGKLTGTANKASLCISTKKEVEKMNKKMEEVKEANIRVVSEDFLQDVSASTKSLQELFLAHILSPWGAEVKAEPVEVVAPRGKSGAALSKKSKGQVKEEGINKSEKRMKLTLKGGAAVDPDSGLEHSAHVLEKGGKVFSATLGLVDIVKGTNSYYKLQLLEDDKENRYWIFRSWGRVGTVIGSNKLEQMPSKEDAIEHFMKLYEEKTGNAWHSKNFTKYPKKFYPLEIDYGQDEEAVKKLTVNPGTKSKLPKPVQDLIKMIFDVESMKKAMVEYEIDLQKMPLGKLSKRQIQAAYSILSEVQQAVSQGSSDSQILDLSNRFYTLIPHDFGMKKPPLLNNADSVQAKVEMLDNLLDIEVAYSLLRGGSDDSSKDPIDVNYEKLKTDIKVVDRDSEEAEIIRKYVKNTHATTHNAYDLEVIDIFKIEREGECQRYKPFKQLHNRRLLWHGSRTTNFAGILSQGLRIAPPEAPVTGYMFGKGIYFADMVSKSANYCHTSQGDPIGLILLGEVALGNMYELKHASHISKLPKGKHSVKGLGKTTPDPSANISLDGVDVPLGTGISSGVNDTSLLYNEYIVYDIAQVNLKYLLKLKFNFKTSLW
Description: (§1) To characterize our compounds, we utilized an assay measuring the displacement of a commercially available fluorescently labeled PARP 1/2 inhibitor (PARPi-FL, Tocris Biosciences, #6461) as exemplified in assays performed in WO2014/064149 and WO2021/013735A1. The assay was performed utilizing the following method: Compounds were dissolved in DMSO an Echo550 liquid handler was utilized to make serial dilations in the desired concentration range in Optiplate-384F plates. 100% DMSO was used for the high (with protein) and low (without protein) control samples. 20 nL of compound or DMSO alone was added to individual assay plate wells. […] The PARPi-FL was then added at a final concentration of 3 nM. The assay plate is centrifuged at 1000 rpm for 1 min and incubated for 4 h at room temperature. […] XLFit (equation 201) is used to calculate a reported IC50 for each compound.

[4] = In vivo determination of rat Kp,uu; details: male Sprague-Dawley rats, oral gavage, Kp*(fraction unbound in brain homogenate/fraction unbound in plasma)
Description: The equilibrium dialysis method was used to investigate the in vitro binding of test articles and reference compounds to plasma proteins. Plasma samples containing 5 μM test article or blank dialysis buffer solution (PBS, pH 7.4) were added to separate chambers of the dialysis wells of the High Throughput equilibrium Dialysis (HTD) device. The dialysis plate was sealed and placed in an incubator at 37° C. with 5% CO2 with shaking at approximately 100 rpm for 6 hours. All experiments were performed in duplicable. Ketoconazole (5 μM) was used as the reference compound. After incubation, the seal was removed, and 50 μL of post-dialysis samples were pipetted from both buffer and plasma chambers into fresh 96-well plates. Samples were equimatrilyzed by either addition of blank plasma to buffer samples or the addition of blank buffer to plasma samples. Subsequently, 400 μL (4 volumes) of acetonitrile containing internal were added to all samples to precipitate proteins prior to analysis by UPLC-MS/MS to determine the relative concentrations of test articles. The unbound fractions in plasma were calculated using the concentrations of test articles in buffer and plasma samples according to the following equation: […]
The equilibrium dialysis method was used to investigate the in vitro binding of test articles and reference compounds to rodent brain homogenate. Brains collected from naïve animals were weighed and homogenized in 4 volumes of PBS, pH 7.4. […] The unbound fractions in diluted brain homogenate were calculated using the concentrations of test articles in buffer and homogenate samples according to the following equation: […]
Prior to bioanalysis, plasma and brain samples were extracted with 4 volumes of acetonitrile containing internal standard and centrifuged for 15 minutes. […] Plasma and brain homogenate drug concentrations were determined against calibration curves generated by spiking blank rat plasma or brain homogenate with drug across an appropriate concentration range. […]

PARP2 = PARP2 (Homo sapiens (Human), UniProt Q9UGN5); assay: Biochemical fluorescence polarization (FP) assay, PARPi-FL displacement, PARP2; format: binding; details: 20 nM protein, 3 nM PARPi-FL, 4 h
Sequence of PARP2 (Q9UGN5 whole entry): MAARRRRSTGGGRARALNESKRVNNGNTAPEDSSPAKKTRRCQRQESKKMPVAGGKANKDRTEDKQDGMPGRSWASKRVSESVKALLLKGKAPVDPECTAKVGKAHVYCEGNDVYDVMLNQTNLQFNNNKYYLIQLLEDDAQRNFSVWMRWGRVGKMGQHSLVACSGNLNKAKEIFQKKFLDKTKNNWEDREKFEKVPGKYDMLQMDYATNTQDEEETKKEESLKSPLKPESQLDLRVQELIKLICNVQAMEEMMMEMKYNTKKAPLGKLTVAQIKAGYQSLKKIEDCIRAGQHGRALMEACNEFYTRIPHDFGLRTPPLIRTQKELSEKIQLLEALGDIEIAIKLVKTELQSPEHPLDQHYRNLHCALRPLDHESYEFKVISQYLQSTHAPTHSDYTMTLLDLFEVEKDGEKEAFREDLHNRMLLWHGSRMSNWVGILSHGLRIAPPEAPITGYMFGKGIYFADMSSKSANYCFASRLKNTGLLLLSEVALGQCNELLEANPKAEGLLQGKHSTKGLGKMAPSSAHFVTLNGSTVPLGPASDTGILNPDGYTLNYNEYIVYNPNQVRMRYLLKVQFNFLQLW
Description: as §1

Row | SMILES | HHEP Clh [1] [mL/min/kg] | HLM Clh [2] [mL/min/kg] | Papp A→B at 2 h, 5 μM [3] [×10⁻⁶ cm/s] | Papp B→A at 2 h, 5 μM [3] [×10⁻⁶ cm/s] | efflux ratio at 2 h, 5 μM [3] | IC50 (PARP1) [nM] | Rat Kpuu [4] | IC50 (PARP2) [nM]
1 | CNC(=O)c1ccc(N2CCN(Cc3ccc4c5c(c(=O)[nH]c4c3)CCO5)CC2)c(C)n1 [Comp. Ex. 1, N,6-dimethyl-5-[4-({4-oxo-2H,3H,5H-furo[3,2-c]quinolin-7-yl}methyl)piperazin-1-yl]pyridine-2-carboxamide] | <3.3 | <4 | 2.5 | 26.2 |  |  |  | 
2 | CNC(=O)c1ccc(N2CCN(Cc3ccc4c5c(c(=O)[nH]c4c3)CCO5)CC2)c(Cl)n1 [Comp. Ex. 2, 6-chloro-N-methyl-5-[4-({4-oxo-2H,3H,5H-furo[3,2-c]quinolin-7-yl}methyl)piperazin-1-yl]pyridine-2-carboxamide] | 6.6 | 4.2 | 2.4 | 21.9 | 9.3 |  |  | 
3 | CNC(=O)c1ccc(N2CCN(Cc3cc(F)c4c5c(c(=O)[nH]c4c3)COC5)CC2)c(F)n1 [Comp. Ex. 3, 6-fluoro-5-(4-((9-fluoro-4-oxo-1,3,4,5-tetrahydrofuro[3,4-c]quinolin-7-yl)methyl)piperazin-1-yl)-N-methylpicolinamide] | 7.1 | 7.2 | 0.8 | 5.5 | 7.3 |  |  | 
4 | CNC(=O)c1ccc(N2CCN(Cc3ccc4c5c(c(=O)[nH]c4c3F)CCC5)CC2)c(F)n1 [Comp. Ex. 4] | 14.5 | 11.5 | 11.5 | 14.5 |  |  |  | 
5 | CNC(=O)c1ccc(N2CCN(Cc3ccc4c([nH]c(=O)c5ccnn54)c3F)CC2)c(F)n1 [Example 1, 6-fluoro-5-[4-({6-fluoro-4-oxo-5H-pyrazolo[1,5-a]quinoxalin-7-yl}methyl)piperazin-1-yl]-N-methylpyridine-2-carboxamide] |  |  |  |  |  | 8.1 | 1.0 | > 100000
6 | CNC(=O)c1ccc(N2CCN(Cc3ccc4c5c(c(=O)[nH]c4c3F)CCO5)CC2)c(F)n1 [Example 9, 6-fluoro-5-[4-({6-fluoro-4-oxo-2H,3H,5H-furo[3,2-c]quinolin-7-yl}methyl)piperazin-1-yl]-N-methylpyridine-2-carboxamide] | <3.3 | <4 | 20.5 | 28.1 |  |  | 0.65 | 
7 | [2H]C([2H])(c1ccc2c3c(c(=O)[nH]c2c1F)CCO3)N1CCN(c2ccc(C(=O)NC)nc2F)CC1 [Example 24] |  |  |  |  |  |  | 0.81 | 
